In the CheMixHub viscosity set:

Test: xn = mol fraction of the nth substance listed

CCCCCCCCCCCCCC + CCCCCCCC
viscosity [mPa·s]
Conditions | x1 = 0.1504 | x1 = 0.3504 | x1 = 0.4999 | x1 = 0.6485 | x1 = 0.8475 | x2 = 0.367 | x2 = 0.635 | x2 = 0.839
293.15 K, 101.33 kPa | – | – | – | – | – | 1.501 | 1.003 | 0.753
303.16 K, 101.3 kPa | 0.6303 | 0.8589 | 1.056 | 1.276 | 1.612 | – | – | –
308.16 K, 101.3 kPa | 0.5925 | 0.8026 | 0.9789 | 1.176 | 1.476 | – | – | –

ClC(Cl)=C(Cl)Cl + CC1CCCCC1
303.15 K, 101 kPa
Conditions | viscosity [mPa·s]
x1 = 0.1166 | 0.637
x1 = 0.2246 | 0.648
x1 = 0.3047 | 0.658
x1 = 0.4335 | 0.679
x1 = 0.5554 | 0.708
x1 = 0.6523 | 0.734
x1 = 0.77 | 0.762
x1 = 0.8108 | 0.773
x1 = 0.8864 | 0.79
x1 = 0.9342 | 0.801

C1CCC2CCCCC2C1 (stereo not drawn) + OCC1CC1
viscosity [mPa·s], 101 kPa
Conditions | x2 = 0.0988 | x2 = 0.2017 | x2 = 0.2994 | x2 = 0.4008 | x2 = 0.5004 | x2 = 0.6011 | x2 = 0.7007 | x2 = 0.8009 | x2 = 0.8994
293.15 K | 2.377 | 2.408 | 2.471 | 2.554 | 2.676 | 2.846 | 3.024 | 3.244 | 3.581
298.15 K | 2.149 | 2.17 | 2.217 | 2.282 | 2.378 | 2.517 | 2.662 | 2.84 | 3.12
303.15 K | 1.952 | 1.965 | 2.001 | 2.05 | 2.126 | 2.24 | 2.356 | 2.502 | 2.736
308.15 K | 1.781 | 1.787 | 1.814 | 1.85 | 1.91 | 2.003 | 2.097 | 2.215 | 2.411
313.15 K | 1.63 | 1.633 | 1.651 | 1.678 | 1.724 | 1.799 | 1.874 | 1.971 | 2.135
318.15 K | 1.499 | 1.497 | 1.509 | 1.527 | 1.562 | 1.623 | 1.683 | 1.762 | 1.899
323.15 K | 1.382 | 1.358 | 1.383 | 1.396 | 1.421 | 1.47 | 1.518 | 1.581 | 1.697

C=CC(C)(O)CCC=C(C)C (stereo not drawn) + CCCCCC
298.15 K, 101.33 kPa
Conditions | viscosity [mPa·s]
x2 = 0.0412 | 3.82
x2 = 0.103 | 3.13
x2 = 0.2546 | 1.952
x2 = 0.3645 | 1.418
x2 = 0.4938 | 0.995
x2 = 0.5828 | 0.792
x2 = 0.6605 | 0.637
x2 = 0.7376 | 0.525
x2 = 0.8069 | 0.445
x2 = 0.8815 | 0.372
x2 = 0.9366 | 0.33
x2 = 0.9766 | 0.306
